# Reference: paper PMC5826802 (Analytical biochemistry, 2017)
# What was measured:
# PARP15 [1] = target: T1, PARP15 (Homo sapiens, UniProt Q460N3); assay: MLISA inhibition of PARP15-catalyzed automodification; type: biochemical; details: for inhibition effects on PARP15 activity: at concentrations up to 100 μM
# T1 sequence (Q460N3 481-678): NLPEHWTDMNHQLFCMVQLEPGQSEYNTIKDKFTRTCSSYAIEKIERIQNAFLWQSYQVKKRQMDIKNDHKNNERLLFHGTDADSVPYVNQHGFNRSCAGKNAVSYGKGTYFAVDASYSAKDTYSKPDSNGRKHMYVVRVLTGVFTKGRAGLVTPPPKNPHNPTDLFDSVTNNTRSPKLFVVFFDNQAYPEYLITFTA
# PARP15 [2] = details: read-out: Km of PARP15 for automodification; reported previously; cited from earlier work
smiles,measurement,setting,value
"Oc1cccc2c(O)nccc12 [1,5-Isoquinolinediol, 1,5-isoquinolinediol]",IC50,PARP15 [1],8.5 ± 2.7 µM
"O=c1[nH]c2ccccc2c2ccccc12 [6(5H)-Phenanthridinone, 6(5H)-phenanthridinone]",IC50,PARP15 [1],1.5 ± 0.5 µM
"Nc1ncnc2[nH]cnc12 [Adenine, adenine]",inhibition effects on PARP15 activity,PARP15 [1],no significant inhibition effects
Cc1nc2c(c(=O)[nH]1)CSCC2 [DR2313],pIC50,"PARP15 [1]; PARP15, 500 nM enzyme, 500 μM NAD+",5.1
CN(C)c1ccc(O)c2c1C[C@H]1C[C@H]3[C@H](N(C)C)C(O)=C(C(N)=O)C(=O)[C@@]3(O)C(O)=C1C2=O [Minocin],inhibition effects on PARP15 activity,PARP15 [1],no significant inhibition effects
"NC(=O)c1ccc[n+]([C@@H]2O[C@H](COP(=O)([O-])OP(=O)(O)OC[C@H]3O[C@@H](n4cnc5c(N)ncnc54)[C@H](O)[C@@H]3O)[C@@H](O)[C@H]2O)c1 [NAD^+, nicotinamide adenine dinucleotide]",Km,PARP15 [2],5.8 ± 1.9 µM
Oc1nc(-c2ccc(C(F)(F)F)cc2)nc2c1CSCC2 [XAV939],inhibition effects on PARP15 activity,PARP15 [1],no significant inhibition effects
